Test results reported in US20060166237A1, “Method of detecting reaction of DNA and DNA-binding protein” (OLYMPUS CORPORATION, priority 2003, published 2006).

Columns and labels:
Type in all cases: cell-based
[1] = test system: transcription factor AP-1 in HeLa cell; experiment: Activation of AP-1 in HeLa cell nucleus by TNF-α stimulation time, FCS readout (Experiment 6-1); conditions: 50 ng/ml TNF-α, nucleus extract 20 μg, DNA 20, FIG. 18
Protocol: (§1) [Experiment 6-1] Experiment of a reaction of a (fluorescently labeled) DNA having an AP-1-binding sequence and a cell nucleus extract. The Experiment was performed using a cell nucleus extract which is extracted under the condition of a different time length of stimulation with a tumor necrosis factor TNF-α.
50 ng/ml of a tumor necrosis factor TNF-α was added to HeLa cell, and the HeLa cell was stimulated for 0, 15, 30, 60, 120 or 180 minutes. Then, a nucleus extract was prepared from each HeLa cell (for preparation method, see Example 3). A concentration of a nucleus extract was set to be 20 μg.
The following shown in Table 26 are used to perform a binding reaction experiment in the same way as Experiment 3-1.

[2] = test system: transcription factor NF-κB in HeLa cell; experiment: Activation of NF-κB in HeLa cell nucleus by TNF-α stimulation time, FCS readout (Experiment 6-2); conditions: 50 ng/ml TNF-α, nucleus extract 20 μg, DNA 30, FIG. 19
Protocol: as §1, with “6-2]” for “6-1]”, “NF-κB-binding” for “AP-1-binding”
In the same way as Experiment 6-1, 50 ng/ml of a tumor necrosis factor TNF-α was added to HeLa cell, and the HeLa cell was stimulated for 0, 15, 30, 60, 120 or 180 minutes. Then, a nucleus extract was prepared from each HeLa cell.
The following shown in Table 27 are used to perform a binding reaction experiment in the same way as Experiment 3-2.

[3] = test system: transcription factor NF-κB in HeLa cell; experiment: Activation of NF-κB in HeLa cell nucleus by TNF-α and APDC stimulation, FCS readout (Experiment 7-2)
Protocol: (§2) Two hours after addition of APDC, a tumor necrosis factor TNF-α is added to stimulate HeLa cell for 30 minutes, from which a nucleus extract is prepared. A nucleus extract having a concentration of 5, 10 or 20 μg is prepared. Stimulation on a cell is performed in the following two cases.
(§3) (I) The case where stimulation with only a tumor necrosis factor TNF-α is performed for 30 minutes. A concentration of a tumor necrosis factor TNF-α is 0, 10, 25 or 50 ng/ml.
(§4) (II) The case where stimulation with a tumor necrosis factor TNF-α is performed for 30 minutes, two hours after addition of APDC. A concentration of APDC is 10, 100 or 200 μM relative to a 50 ng/ml of a tumor necrosis factor TNF-α.
[Experiment 7-2] Experiment of a reaction of a (fluorescently labeled) DNA having an […] sequence and a cell nucleus extract. The Experiment was performed using a cell nucleus extract which is extracted under the condition of a different concentration of an added tumor necrosis factor TNF-α and a different concentration of added APDC.
The following shown in Table 29 are used to perform a binding reaction experiment in the same way as Experiment 3-2.

[4] = test system: transcription factor AP-1 in HeLa cell; experiment: Activation of AP-1 in HeLa cell nucleus by TNF-α and APDC stimulation, FCS readout (Experiment 7-1)
Protocol: as §2, §3, §4
[Experiment 7-1] Experiment of a reaction of a (fluorescently labeled) DNA having an AP-1-binding sequence and a cell nucleus extract. The Experiment was performed using a cell nucleus extract which is extracted under the condition of a different concentration of an added tumor necrosis factor TNF-α and a different concentration of an added APDC.
The following shown in Table 28 are used to perform a binding reaction experiment in the same way as Experiment 3-1.

[5] = HeLa cell, APDC 10, 100 or 200 μM with 50 ng/ml TNF-α

| Compound | stimulation time giving greatest translational diffusion time (AP-1 sufficiently activated) [1] [min] | stimulation time giving greatest translational diffusion time (NF-κB sufficiently activated) [2] [min] | activation of transcription factor NF-κB in cell nucleus extract ([3]; stimulation with only TNF-α 50 ng/ml for 30 minutes, FIG. 21) | activation of transcription factor AP-1 in cell nucleus extract ([4]; APDC 100 μM and 200 μM, added 2 hours before 50 ng/ml TNF-α for 30 minutes, FIG. 20) | effect of APDC on activation of transcription factor AP-1 by TNF-α [4, 5] | effect of APDC on activation of transcription factor NF-κB by TNF-α [3, 5] |
| --- | --- | --- | --- | --- | --- | --- |
| tumor necrosis factor TNF-α | 30 | 15 | most activated | – | – | – |
| N.S=C(S)N1CCCC1 [APDC, Ammonium pyrrolidinedithiocarbamate] | – | – | – | most activated | promotes activation of a transcription factor AP-1 by a tumor necrosis factor TNF-α | suppresses activation of a transcription factor NF-κB by a tumor necrosis factor TNF-α |
